According to patent publication US8759014B2, “Methods of obtaining antigen-specific T cell populations” (The United States of America, as represented by the …, priority 2008, dated 2014):

How the values were obtained:
[1] = tested on: PBMC from HLA-A2+ metastatic melanoma patients
PBMC sub-populations = experiment: HT-qPCR IFN-γ screen of PBMC sub-populations contacted with candidate mesothelin peptides; type: cell-based, human; details: highest IFN-γ mRNA stimulation index of PBMC sub-populations contacted with the peptide and IL-2; SI <2 = not reactive
Experimental: PBMCs obtained by leukapheresis from HLA-A2+ metastatic melanoma patients are used to establish 96 independent subpopulations cultured in complete medium (CM) consisting of RPMI 1640 supplemented with 10% heat-inactivated fetal bovine serum, 2 mM L-glutamine (Invitrogen, Carlsbad, Calif.), 50 units/mL penicillin (Invitrogen), 50 μg/mL streptomycin (Invitrogen), 50 μg/mL gentamicin (Invitrogen), 10 mM Hepes (Invitrogen), and 250 ng/mL Amphotericin B (Invitrogen), along with 10% heat-inactivated human AB serum (Gemini Bio-Products, Woodland, Calif.). […] The SI reactivities for the 96 wells are stratified by their magnitude and the most reactive subpopulations are selected for limiting dilution cloning.
Mesothelin peptides of the following amino acid sequence are synthesized as essentially described in Example 1: […] (SEQ ID NO: 12), […] (SEQ ID NO: 11), […] (SEQ ID NO: 13), […] (SEQ ID NO: 14), […] (SEQ ID NO: 15), […] (SEQ ID NO: 16), […] (SEQ ID NO: 17), […] (SEQ ID NO: 18), […] (SEQ ID NO: 19), and […] (SEQ ID NO: 20). The peptides are used to contact PBMC sub-populations along with IL-2 in accordance with the procedures described in Example 4. HT-qPCR is performed on a sample of each sub-population to determine the expression of IFN-γ by the contacted PBMC sub-populations.

Molecule | number of patients with at least one microculture with significant peptide reactivity (SI >2) [1] | percent of patients with individual wells with peptide reactivity above background ([1]; 17 HLA-A2+ melanoma patients (8 for gp100154-162), 1 μM peptide, 6 days, IL-2 90 IU/ml) | Highest SI (Day 14) (PBMC sub-populations)
CC[C@H](C)[C@H](N)C(=O)N[C@H](C(=O)N[C@@H](CC(=O)O)C(=O)N[C@@H](CCC(N)=O)C(=O)N[C@H](C(=O)N1CCC[C@H]1C(=O)N[C@@H](Cc1ccccc1)C(=O)N[C@@H](CO)C(=O)N[C@H](C(=O)O)C(C)C)C(C)C)[C@@H](C)O [gp100209-217] | 16 patients | 94% | –
FLLFSLGWV | – | – | 29
LIFYKKWEL | – | – | <2
LLATQMDRV | – | – | <2
LLGFPCAEV | – | – | <2
LPLDLLLFL | – | – | <2
NMNGSEYFV | – | – | *<2
RLSEPPEDL | – | – | <2
SLLFLLFSL | – | – | 119
VLLPRLVSC | – | – | <2
VLPLTVAEV | – | – | <2
